Results on three compounds are retold here after patent US3969419A, “3-(2-Halo-4-biphenylyl)-1-butanols and derivatives thereof” (Boehringer Ingelheim GmbH, priority 1973, dated 1976).

Series [1] concerns kaolin edema of the hind paws of the rat. Put plainly: anti-exudative effect on the kaolin edema of the hind paws of the rat. Format: in vivo, rat (male FW 49). The conditions noted are these: per os 30 minutes before inducement of edema, swelling at 5 hours, dose leading to 35% reduction of the swelling, graphic extrapolation. The protocol: (§1) The compounds were tested for their anti-exudative effects on the kaolin edema and carrageenin edema of the hind paws of the rat, for their ulcerogenicity and for their acute toxicity by oral administration to rats.
(§2) The kaolin edema was induced according to the method of Hillebrecht [Arzneimittel-Forsch. 4, 607 (1954) ] by subplantary injection of 0.05 ml of a 10% suspension of kaolin in a 0.85% sodium chloride solution. The measurement of the thickness of the paws was done by using the technique of Doepfner and Cerletti (Int. Arch. Allergy, Immunol. 12, 89 (1958)).
(§3) Male FW 49-rats of an average weight of 120-150 gm were orally treated with the test compounds 30 minutes before inducement of the edema with the aid of a esophageal tube. Five hours after the provocation of the edema the averaged values of the swelling caused in the paws of the rats treated with the test compounds were compared with those values measured on blind-treated control animals. By graphic extrapolation the dose leading to a 35% reduction of the swelling (ED35) was calculated from the percent reduction values measured by administration of different doses.

For series [2], the system named is carrageenin edema of the hind paws of the rat. Put plainly: anti-exudative effect on the carrageenin edema of the hind paws of the rat. Format: in vivo, rat (male FW 49). To be noted: per os 60 minutes before provocation of edema, measured 3 hours after, dose leading to 35% reduction of the swelling. The protocol:
as §1
(§4) The provocation of the carrageenin edema was effected according to the method of Winter et al. [Proc. Soc. exp. Biol. Med. 111, 544 (1962) ] by subplantary injection of 0.05 ml of a 1% solution of carrageenin in a 0.85% solution of sodium chloride. The test compounds were orally administered 60 minutes before the provocation of the edema.
(§5) For the calculation of the reductive effect on the edema, the values measured three hours after the provocation of the edema were used. All the other details were the same as described above in the case of the kaolin edema.

The test system of series [3] is kaolin and carrageenin edema of the hind paws of the rat. As to the kind of experiment: average anti-exudative (antiphlogistic) activity against kaolin and carrageenin edema. In kind it is in vivo, rat (male FW 49). The conditions noted are these: per os, for C only from carrageenin edema. The protocol:
The compounds of the present invention were tested for antiphlogistic activity, ulcerogenic activity and acute toxicity in the manner described below, and representative results of these tests are shown in the tables, where
as §1, §2, §3, §4, §5
(§6) The therapeutic indices, as a measure for the therapeutic usefulness, were calculated by forming the quotient of the ED50 -value for the ulcerogenicity or of th LD50 -value and the ED35 -value derived from the tests for anti-exudative activity against the kaolin and carrageenin edema.

Series [4] in a line: acute toxicity by oral administration to rats. To be noted: in vivo, po; for selectivity ratio: quotient of LD50 and average anti-exudative ED35, rat, per os, read-out: Therapeutic ratio LD50/aver.ED35; for LD50 at 336 h: rat, per os as trituration in tylose, deaths within 14 days, Litchfield and Wilcoxon. Format: in vivo. Here is the method:
as §1
(§7) After oral administration to male and female FW 49-rats (ratio 1:1) having an average body weight of 135 gm, the acute toxicity (LD50) was determined. The substances were administered orally as a trituration in tylose.
(§8) The calculation of the LD50 -values was effected, as far as possible, according to the method of Litchfield and Wilcoxon, based on the percentage of animals which died within 14 days after administration of the different doses.
as §6

The nature of the next series: in vivo. The conditions noted are these: po; for selectivity ratio: quotient of ulcerogenic ED50 and average antiexudative ED35, rat, per os, read-out: Therapeutic index: Ratio of ulcerogenic activity to antiexudative activity ED50/ED35; for TD50: rat. The protocol: as §1
The tests for ulcerogenic activity were effected on FW 49-rats of both sexes (ratio 1:1) having a body weight of 130 to 150 gm. The animals were given the substances on three subsequent days, once each day, as a trituration in tylose by way of an esophageal tube.
The animals were killed four hours after the last administration; the stomach and duodenal mucosa were investigated for ulcers.
From the percentage of animals showing at least one ulcer after administration of different doses, the ED50 -value was calculated according to the method of Litchfield and Wilcoxon [J. Pharmacol. exp. Therap. 96, 99 (1949) ].
as §6

Another series deals with rat. Put plainly: acute toxicity by oral administration to rats. Format: in vivo. To be noted: rat, per os, at 1600 mgm/kg, within 14 days. Here is the method:
as §1, §7, §8, §6

[5] abbreviates: Table I, average of kaolin and carrageenin edema, read-out: Average anti-exudative ED35 per os.
The mark [6] stands for this setting: Table II, read-out: Average antiexudative ED35.

Molecules are shown by their SMILES. Where two headings read alike, the source gives them in different places.

For the compound `CC(CCO)c1ccc(-c2ccccc2)c(F)c1` (stereo not drawn) [A, 3-(2-fluoro-4-biphenylyl)-1-butanol], the ED35 was 17 mg/kg in series [1], 8.5 mg/kg in series [2], 12.8 mg/kg in series [3] (setting [5]) and 12.8 mg/kg in series [3] (setting [6]). Moreover, the selectivity ratio in series [4] was 64.7; in the series “in vivo” it was 2.39. Besides, in series [4], the LD50 at 336 h was 825 mg/kg. The compound further gave a TD50 in the series “in vivo” of 30.5 mg/kg.
For `CC(CCOC(=O)c1ccncc1)c1ccc(-c2ccccc2)c(F)c1.Cl` (stereo not drawn) [B, 3-(2-fluoro-4-biphenylyl)-1-butyl isonicotinate hydrochloride], the ED35 is 20 mg/kg in series [1], 13 mg/kg in series [2], 16.5 mg/kg in series [3] (setting [5]) and 16.5 mg/kg in series [3] (setting [6]). The selectivity ratio amounted to 92.7 in series [4] and 3.7 in the series “in vivo”. Further, in series [4], the LD50 at 336 h worked out at 1530 mg/kg. The TD50 in “in vivo” worked out at 61 mg/kg.
With `CC(CCO)c1ccc(-c2ccccc2)c(Cl)c1` (stereo not drawn) [C, 3-(2-chloro-4-biphenylyl)-1-butanol], the ED35 in series [2], in series [3] (setting [5]) and in series [3] (setting [6]) was 17 mg/kg throughout. The selectivity ratio in series [4] is over 94.1; in “in vivo” it was 2.15. The compound further registered an LD50 at 336 h in series [4] of over 1600 mg/kg. Besides, the animals died in the series with rat was 1 out of 10. Further, in “in vivo”, the TD50 is 36.6 mg/kg.
